# Test results taken from the SangsterLogP compilation.
row,SMILES,logP
1,CCCCCCCCCc1ccccc1O,5.76
2,CCCCCCCCCc1ccc(O)c(O)c1,5.54
3,CCCCCCCCCCCCCCCc1cccc(O)c1O,9.27
4,CCCCCCCCCCCCCCCc1cccc(O)c1,10.1
5,CCCCCCCCCCCCCc1ccc(O)cc1,8.2
6,CCCCCCCc1cccc(O)c1O,3.59
7,CCCCCc1cccc(O)c1,3.13
8,CCCCCCCCCc1cccc(O)c1O,4.86
9,CCCCCCCCCCCCCCCc1ccc(O)c(O)c1,9.9
10,CCCCCCCCCCCCc1ccc(O)cc1,7.91
11,CCCCCCCCCc1ccc(O)cc1,5.76
12,CCCCCCCc1ccccc1O,4.45
13,CCCCCCCc1ccc(O)cc1,4.15
14,CCCCCCCCCCCCCc1cccc(O)c1,8.84
15,CCCCCc1ccc(O)c(O)c1,3.13
16,CCCCCCCCCc1cccc(O)c1,5.61
17,CCCCCCCCCCCCCCCc1ccccc1O,10.1

# Results, then the compound that gave them:
row,logP,SMILES
1,7.18,CCCCCCCCCCCc1ccc(O)cc1
2,8.29,CCCCCCCCCCCCCCCc1ccc(O)cc1O
3,6.3,CCCCCCCCCCCc1cccc(O)c1O
4,7.17,CCCCCCCCCCCc1ccccc1O
5,6.98,CCCCCCCCCCCc1cccc(O)c1
6,8.61,CCCCCCCCCCCCCc1ccccc1O
7,6.94,CCCCCCCCCCCc1ccc(O)c(O)c1
8,8.42,CCCCCCCCCCCCCc1ccc(O)c(O)c1
9,6.84,CCCCCCCCCCCCCc1ccc(O)cc1O
10,7.75,CCCCCCCCCCCCCc1cccc(O)c1O
11,2.9,CCCCCCCc1ccc(O)cc1O
12,5.43,CCCCCCCCCCCc1ccc(O)cc1O
13,4.1,CCCCCCCCCc1ccc(O)cc1O
